In patent US9272927B2, “Method for preventing growth of microorganisms, and a combination for the prevention of microbial growth” (KEMIRA, OYJ, priority 2006, dated 2016):

Assays:
Assay type in all cases: cell-based
[1] = test system: biofilm of a mixture of adherent bacteria (Deinococcus geothermalis, Pseudoxanthomonas taiwanensis and Meiothermus silvanus); assay: Test for destructing a biofilm on stainless steel pegs, regrowth of new biofilm stained with safranin (Example 5); design: key: ++++: great amounts of biofilm were formed; ++: clearly reduced formation of the new biofilm, but not the complete inhibition thereof; −: completely inhibiting the new biofilm; settings: total contact time 3 hours
Description: A test for destructing a biofilm was performed as described in the document FI 117056 B (Kemira Oyj). A biofilm was pregrown on lidplates having stainless steel pegs (3 d, 45° C., agitation at 150 rpm.). Clear filtrate of a fine paper machine served as the water (pH 7.6, ORP 71 mV), while a mixture of adherent bacteria (Deinococcus geothermalis, Pseudoxanthomonas taiwanensis and Meiothermus silvanus) grown in the laboratory was used for inoculation. After identical biofilms were grown on all the pegs of the lids, the lids were removed from the clear filtrate used for cultivation, washed with tap water and placed on plastic plates with 12 wells, one peg per well. 3.5 ml of the clear filtrate from the same paper machine, and the biocides to be tested were added in advance to each well. The pegs with biofilms were first immersed into the wells for 15 minutes, followed by removal of the plates for a moment for the addition of the other components of the biocidal combinations to the wells. Exposure to biocides was continued to attain a total contact time of 3 hours. Then, viability of the biofilms was determined by transferring the peglids to fresh 12-well plates where each well contained 2 ml of sterile cultivation broth, followed by cultivating the plates for 19 hours at 45° C. while mixing at 150 rpm. […]

[2] = test system: aerobic bacteria present in circulation water; assay: Bactericidal test on circulation water from an alkaline fine paper machine, agar plate count (Example 6); settings: for killing of bacteria: 3 hours; for re-growth of bacteria: single biocide only, dosages that had yielded an efficient kill, within 1 day
Description: Circulation water (pH 8.2, ORP+169 mV) was collected from an alkaline fine paper machine (producing uncoated copy paper) and divided in 11 plastic containers. When two different biocides were dosed in to same container, the peracid was dosed first, the sample mixed thoroughly, and the second biocide was added within 5 to 10 minutes. All biocide dosages are reported as ppm (mg/l) of the commercial product, for example 20 ppm of performic acid (PFA) equilibrium product equals about 2 ppm as performic acid active substance, 12 ppm of BCDMH product equals about 4 ppm as active chlorine and 30 ppm of MCDMH product equals about 3 ppm as active chlorine. After biocide dosing the containers were capped and incubated at paper machine temperature (45° C.) with continuous agitation. The killing efficacy of different biocide dosages was measured 3 hours and 1 day after the biocide dosing using agar plate count method (PCA agar, 45° C., and 2 days).

[3] = test system: aerobic bacteria present in broke; assay: Bactericidal test on dilute broke of a board machine (Example 1); settings: BCDMH 30 ppm alone; contact time 24 hours
Description: Dilute broke of a board machine (pH 7.8, oxidation reduction potential (ORP) 40 mV) was divided into 10 separate jars, and biocides to be tested were dosed. Concentrations are expressed in ppm (mg/l) of the commercially available product. In tests where two different agents were dosed into a single jar, the jar was closed after the first pipetting, the broke sample was vigorously agitated, followed by the addition of the second agent during 5 to 10 minutes. Jars were incubated under conditions corresponding to those in the broke system (45° C., mixing), and thereafter, viable aerobic bacterial counts were determined by cultivation after exposure periods of 4 and 24 hours.
In this bactericidal test on broke, killing efficacy of BCDMH and ePAA used alone and in combinations were compared, two thirds of BCDMH being replaced in the combinations with peracetic acid used in threefold amounts. For instance BCDMH 10 ppm versus ePAA 30 ppm versus BCDMH 3.3 ppm+ePAA 20 ppm.
The combination “BCDMH 3.3 ppm+ePAA 20 ppm” means that BCDMH was added prior to ePAA.

SMILES | formation of new biofilm ([1]; 16 ppm of BCDMH alone) | killing of bacteria ([2]; 12 ppm of BCDMH alone) | re-growth of bacteria [2] | inhibition of regrowth [3] | formation of new biofilm ([1]; 60 ppm of MCDMH alone) | killing of bacteria ([2]; 45 ppm of MCDMH alone)
CC1(C)C(=O)N(Cl)C(=O)N1Br [BCDMH, bromochlorodimethyl hydantoin] | ++ | most efficient | active re-growth of bacteria had occurred | inhibited more effectively by BCDMH 30 ppm than PAA alone | – | –
CC1(C)C(=O)NC(=O)N1Cl [MCDMH, monochlorodimethyl hydantoin] | – | – | active re-growth of bacteria had occurred | – | ++++ | most efficient
